Where “and” joins values, the source holds several entries; their conditions need not be identical. Equal values may be shown once. Read-outs that look alike come from different tables or passages of the source.
Experiments:
CCD-1106 KERTr cells = test: FITC annexin V / PI apoptosis assay by flow cytometry, 24 hours; assay type: cell-based, human; settings: for late apoptic cells: 24 hours
Method: In addition to growth inhibition, Inventors also investigated the effect of KX01 on apoptosis in keratinocytes. CCD-1106 KERTr cells (1×10^6) were seeded in 60 mm dishes and treated with test compounds at varying concentrations (e.g. KX01: 20 to 500 nM; calcipotriol 50 to 1000 nM) for 24 hours. Cell apoptosis was assessed by using a FITC annexin V apoptosis detection kit (BD Biosciences™) according to manufacturer's instruction. Briefly, cells were collected in 1× binding buffer and incubated with fluorescein isothiocyanate (FITC)-conjugated annexin V and propidium iodide (PI) for 15 minutes at room temperature in the dark, followed by flow cytometry analysis using a LSRFortessa™ flow cytometer (BD Biosciences™).

[1] = system: human keratinocytes in culture (cell line CCD-1106 KERTr); test: cell viability / cell growth of human keratinocytes in culture, KX01, calcipotriol and fixed-ratio combinations; assay type: cell-based; design: cell growth (cell viability): unit not given here; settings: for viability at 0.003 µM: CCD-1106, concentration 3 nM; for viability at 0.009 µM: CCD-1106, concentration 9 nM; for viability at 0.027 µM: CCD-1106, concentration 27 nM; for viability at 0.243 µM: CCD-1106, concentration 243 nM; for viability at 0.729 µM: CCD-1106, concentration 729 nM; for viability at 2.187 µM: CCD-1106, concentration 2187 nM
Excerpt: Typical data from studies of the effects of compound KX01 provided in combination with calcipotriol on growth of human keratinocytes in culture (cell line CCD-1106 KERTr) are shown in FIGS. 1 to 3 and Tables 1 to 6. FIG. 1 and Tables 1 and 2 show the degree of growth inhibition found in a typical study performed with KX01 and calcipotriol at a 1:5 ratio.

[2] = system: human keratinocyte cell line; test: inhibition of human keratinocyte growth, individual dose response, 72 hours, MTT assay; assay type: cell-based; settings: 72 hour exposure
Method: FIG. 4: Inhibition of human keratinocyte growth versus KX01 concentration (treatment duration: 72 hours; cell growth measured using the MTT assay). […] FIG. 5: Inhibition of human keratinocyte growth versus calcipotriol concentration (treatment duration: 72 hours; cell growth measured using the MTT assay). […] A human keratinocyte cell line was used in these studies.

[3] = system: human keratinocyte cell line; test: combinatorial dose response surface study of cell viability (PSI), KX01 and calcipotriol; assay type: cell-based; settings: model estimate
Excerpt: FIG. 6: Dose response surface of cell viability versus calcipotriol concentration versus KX01 concentration. Synergistic combinations of calcipotriol and KX01 are below the surface of additivity (indicating enhanced inhibition of growth), and antagonistic combinations are above the surface of additivity (indicative of reduced inhibition of growth). Individual dose response curves for KX01 and calcipotriol as determined above can be used to generate dose response surfaces representative of the additive effects of these compounds on keratinocyte growth. […] A PSI value of 1 corresponds to an additive effect. A PSI value of less than 1 indicates a synergistic effect, and a PSI value of greater than 1 indicates an antagonistic effect. Cell viability was measured in a number of experiments. In Experiment 1, the concentrations of calcipotriol were: 0, 3, 9, 27, 81, and 243 nM, and the concentrations of KX01 were: 0, 5, 10, 20, 40, 60, 80, and 160 nM. In Experiment 2, the concentrations of calcipotriol were: 0, 5, 10, 20, 40, 80, 160, 320, and 1280 nM, and the concentrations of KX01 were: 1, 3, 9, 27, and 81 nM. […] It is notable that unexpected synergy is observed across a range of concentrations and combinations. Tables 7, 8, and 9 show the results for determination of individual IC50 and maximum inhibitory concentration values for KX01 and calcipotriol, as well as the PSI value for the drug combination. […]

SRC-kinase = SRC-kinase (Homo sapiens, UniProt P12931); settings: cited from earlier work
tubulin polymerization = settings: cited from earlier work
apoptosis by G2/M arrest = settings: cited from earlier work
[4] = system: cell proliferation/growth; test: combined treatment with KX01 and tazarotene, inhibition of cell proliferation/growth; assay type: cell-based
Excerpt: Examples of suitable retinoids include retinol, retinal, retinoic acid isotretinoin, alitreninoin, etretinate, acitretin, adapalene, bexarotene, and/or tazarotene. FIGS. 7 and 8 show the effects of tazarotene on growth of cells in culture, including CCD-1106 KERTr keratinocytes (FIG. 7) and A431 cells (epidermoid cells obtained from a human squamous cell carcinoma, FIG. 8).

[5] = concentration 2187 nM, 2.187 µM

SRC-kinase, sequence (P12931 whole entry): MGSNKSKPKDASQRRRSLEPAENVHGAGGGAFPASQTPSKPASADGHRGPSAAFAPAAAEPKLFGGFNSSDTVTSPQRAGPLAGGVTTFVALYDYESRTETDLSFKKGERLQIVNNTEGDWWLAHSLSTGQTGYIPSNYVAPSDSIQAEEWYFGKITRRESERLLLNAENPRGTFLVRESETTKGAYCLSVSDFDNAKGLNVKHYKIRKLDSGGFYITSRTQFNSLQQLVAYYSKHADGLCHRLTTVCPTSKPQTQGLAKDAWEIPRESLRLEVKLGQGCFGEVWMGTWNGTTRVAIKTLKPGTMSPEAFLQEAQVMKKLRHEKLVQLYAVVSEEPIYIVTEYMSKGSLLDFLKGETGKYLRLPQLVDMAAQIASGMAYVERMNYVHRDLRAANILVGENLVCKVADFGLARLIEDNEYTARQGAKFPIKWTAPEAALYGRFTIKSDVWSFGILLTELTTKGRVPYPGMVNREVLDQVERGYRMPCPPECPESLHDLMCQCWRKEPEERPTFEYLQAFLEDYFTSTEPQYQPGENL

SMILES	GI50 [1]	GI50 ([1]; Homo sapiens, CCD-1106) [µM]	viability at 0.003 µM ([1]; Homo sapiens) [%]	viability at 0.009 µM ([1]; Homo sapiens) [%]	viability at 0.027 µM ([1]; Homo sapiens) [%]	viability at 0.243 µM ([1]; Homo sapiens) [%]	viability at 0.729 µM ([1]; Homo sapiens) [%]	viability at 2.187 µM ([1]; Homo sapiens) [%]	cell growth (cell viability) ([1]; concentration 3 nM, 0.003 µM)	cell growth (cell viability) ([1]; concentration 9 nM, 0.009 µM)	cell growth (cell viability) ([1]; concentration 27 nM, 0.027 µM)	cell growth (cell viability) ([1]; concentration 729 nM, 0.729 µM)	cell growth (cell viability) [1, 5]	IC50 [2] [µM]	IC50 ([3]; Homo sapiens, Keratinocyte) [µM]	IC50 [3]	Max Inhibition [3]	also measured
C=C1/C(=C\C=C2/CCC[C@]3(C)[C@@H]([C@H](C)/C=C/[C@@H](O)C4CC4)CC[C@@H]23)C[C@@H](O)C[C@@H]1O [Calcipotriol, calcipotriol]	0.31 µM and 0.339 µM	0.265	94	89.9	70.5	47.3	47	44.8	95.3 and 96.1	88.8 and 89.7	72.5 and 70.1	47.1 and 48.7	46.7 and 48.3	0.0955	0.112	0.0593 µM	0.474 and 0.36 and 0.439	effect on apoptosis compared with control cells (CCD-1106 KERTr cells; 200 nm calcipotriol): not distinguishable from that of control cells receiving no drug treatment; late apoptic cells (CCD-1106 KERTr cells; calcipotriol 50 nM): 2.41%; late apoptic cells (CCD-1106 KERTr cells; calcipotriol 200 nM): 2.06%; late apoptic cells (CCD-1106 KERTr cells; calcipotriol 500 nM): 4.13%; late apoptic cells (CCD-1106 KERTr cells; calcipotriol 1,000 nM): 4.19%; viability at 0.081 µM ([1]; Homo sapiens, CCD-1106, concentration 81 nM): 49.4%; viability at 6.561 µM ([1]; Homo sapiens, CCD-1106, concentration 6561 nM): 19.2%; cell growth (cell viability) ([1]; concentration 81 nM, 0.081 µM): 53.2 and 52.8; cell growth (cell viability) ([1]; concentration 243 nM, 0.243 µM): 47.7 and 51.0; cell growth (cell viability) ([1]; concentration 6561 nM, 6.561 µM): 25.2 and 26.5
O=C(Cc1ccc(-c2ccc(OCCN3CCOCC3)cc2)cn1)NCc1ccccc1 [KX01, N-benzyl-2-(5-{4-[2-(morpholine-4-yl)ethoxy]phenyl}pyridine-2-yl)acetamide]	0.038 µM and 0.036 µM	0.032	90.9	94.7	67.1	2.07	6.66	8.91	100.0 and 96.6	100.2 and 98.2	79.8 and 80.1	9.9 and 7.3	14.9 and 9.5	0.0419	0.0413	0.0328 µM and 0.047 µM	0.856 and 0.77 and 0.741	SRC-kinase inhibition (SRC-kinase): inhibit SRC-kinase; late apoptic cells (CCD-1106 KERTr cells; KX01 20 nM): 2.09%; late apoptic cells (CCD-1106 KERTr cells; KX01 40 nM): 3.50%; late apoptic cells (CCD-1106 KERTr cells; KX01 100 nM): 6.33%; late apoptic cells (CCD-1106 KERTr cells; KX01 500 nM): 4.34%; inhibition of tubulin polymerization (tubulin polymerization): inhibits tubulin polymerization; viability at 0.000333 µM ([1]; Homo sapiens, CCD-1106, concentration 0.333 nM): 100%; viability at 0.001 µM ([1]; Homo sapiens, CCD-1106, concentration 1 nM): 97%; cell growth (cell viability) ([1]; concentration 0.333 nM, 0.000333 µM): 102.3 and 98.0; cell growth (cell viability) ([1]; concentration 1 nM, 0.001 µM): 99.9 and 101.3; induction of apoptosis (apoptosis by G2/M arrest): induces apoptosis by G2/M arrest; H [4]: 3.3; IC50 [4]: 0.045 µM; Imax [4]: 0.92
